{"source": "patent US11911348B2", "about": "“Therapeutic agent for cancer” (THERAVALUES CORPORATION, priority 2014, dated 2024)", "test_system": "MC38 mouse colon cancer tumor", "assay": "Tumor size of subcutaneously implanted MC38 mouse colon cancer in mice", "type": "in vivo", "excerpt": "As the test animals, 6-week old […] mice (female, weighed around 20 g, CLEA Japan, Inc.) were purchased, and used after being acclimated to the environment for two to five days. • (2) Transplantation Method\nIn the right abdomen of the test animals, 5×10^5 mouse colon cancer cell lines (MC38) were subcutaneously implanted by using a 27 G needle. • (3) Administration method\nInto the mice (n=[…] to 8) to which the colon cancer cell lines (MC 38) had been inoculated, every day from the 3rd day after the inoculation to the last day of the experiment, 200 μl of a curcumin solution prepared by suspending a commercially available curcumin 10%-containing pharmaceutical preparation (Theracurmin® CR-031P, manufactured by Theravalues Corporation) (Examples 1 to 4) in water or by suspending the synthetic curcumin-HPMC complex prepared as described below (Example 5) in water (prepared so that the curcumin content as 5 mg or 30 mg per 1 kg body weight) was forcibly administered orally to the mice using a feeding needle.\nIn addition, as so the control groups, a curcumin single administration group (Comparative Examples 1, 4, 6, and 10) in a case where Rat IgG2b (clone: LTF-2 manufactured by Bio X Cell) was intraperitoneally administered in place of the anti-PD-L1 antibody (clone: 10F·9G2 manufactured by Bio X Cell) or the anti-PD-1 antibody (clone: RMP1-14 manufactured by Bio X. Cell); an anti-PD-L1 antibody single administration group (Comparative Examples 2, 5 and 7) in a case where water was administered in place of the curcumin solution, and an anti-PD-L1 antibody was administered; an anti-PD-1 antibody single administration group (Comparative Examples 9 and 11) in a case where water was administered in place of the curcumin solution, and an anti-PD-1 antibody was administered; and a water administration group (Comparative Example 3) in a case where water was administered in place of the curcumin solution, and Rat IgG2b (clone: LTF-2 manufactured by Bio X Cell) was administered in place of the anti-PD-L1 antibody were prepared. • (4) Evaluation of Tumor Size\nThe tumor size of the test animals was measured by measuring the long diameter and the short diameter of the tumor with a vernier caliper every 2 to 4 days, and calculated by the following equation. Tumor size=the long diameter×the short diameter×the short diameter÷2 (Mathematical Formula 1) • (5) Preparation method of synthetic curcumin-HPMC complex"}
{"compound": "COc1cc(/C=C/C(=O)/C=C(O)/C=C/c2ccc(O)c(OC)c2)ccc1O", "note": "[curcumin]", "values": [{"measurement": "size of the MC38 mouse colon cancer tumor compared with the control", "setting": "FIG. 3, curcumin 5 mg/kg/mouse singly administered", "result": "same size as that of the control"}, {"measurement": "antiproliferative effect of the colon cancer tumor", "setting": "FIG. 3, curcumin 5 mg/kg/mouse, anti-PD-L1 antibody on 7th, 10th, 13th days", "result": "not recognized"}, {"measurement": "size of the MC38 mouse colon cancer tumor compared with the control", "setting": "FIG. 4, curcumin 30 mg/kg/mouse singly administered", "result": "same size as that of the control"}, {"measurement": "antiproliferative effect of the colon cancer tumor", "setting": "FIG. 4, curcumin 30 mg/kg/mouse, anti-PD-L1 antibody", "result": "not recognized"}]}
